Experimental data published in patent US20260306463A1, “SIK INHIBITORS TO TREAT CHRONIC KIDNEY DISEASE” (The General Hospital Corporation, priority 2023, published 2026).
“Also recorded” adds a separate entry of the source.

Assays:
[1] = tested on: human kidney organoids; experiment: RT-qPCR in cisplatin-injured human kidney organoids; format: cell-based; conditions: for proximal tubule marker genes / fibrosis/injury marker genes: panel; for fibrosis/injury marker genes: five cisplatin cycles (FIG. 12B)
Excerpt: FIG. 8. SK-124 treatment restores gene expression changes in cisplatin-injured human kidney organoids. RNA was isolated from organoids treated as in FIG. 7 for RT-qPCR for the indicated genes. Injury markers (Pai-1, Fibronectin-1, and Co18a1) are induced by cisplatin treatment and reduced by SK-124. In contrast, the proximal tubule marker Lrp2 is reduced by cisplatin treatment and rescued by SK-124.
FIGS. 10A-10B. SK-124 treatment restores gene expression changes in cisplatin-injured human kidney organoids. RNA was isolated from organoids treated as in FIG. 9 with the indicated number of cisplatin cycles plus DMSO control (“Cis”) or SK-124 (10 μM; “Cis+SK”) for RT-qPCR. […] (B) Injury/fibrosis markers (FN-1, Co/8a1, and Pai-1) were induced by cisplatin and suppressed by SK-124.
FIGS. 12A-12B. SK-124 protects human kidney organoids from cisplatin injury in a dose-dependent manner. RNA was isolated from organoids treated as in FIG. 11 for RT-qPCR. (A) Proximal tubule marker genes are reduced by cisplatin and increased by SK-124. (B) Fibrosis/injury marker genes are induced by cisplatin and reduced by SK-124.
BJFF human induced pluripotent stem cells (hPSCs) were maintained on Geltrexcoated (Thermo Fisher Scientific) plates using StemFit Basic04 Complete (Ajinomoto Co. Inc.) as previously reported(25). The cells were passaged weekly using Accutase (STEMCELL Technologies) for dissociation and Y27632 (Tocris) for adhesion. Directed differentiation of hPSCs into kidney organoids has been published elsewhere (29). Briefly, hPSCs were differentiated into metanephric mesenchyme cells on day 8 by a three-step directed differentiation protocol. Metanephric mesenchyme was transferred into suspension culture in 96-well ultralow adhesion plates (Coming) and further differentiated into kidney organoids, as previously reported(25). Quality control measures of SIX2 immunostaining on day 8 of differentiation and CDH1, LTL, PODXL, CD146, MEIS1/2/3, and SYTOX-blue staining on day 21 were performed on all batches of kidney organoids to limit batch-to-batch heterogeneity. Kidney organoids were maintained in 200 μl of basal media consisting of Advanced RPMI (Thermo Fisher Scientific) and GlutaMAX (Thermo Fisher Scientific) in 96-well plates, as previously reported. Media changes were conducted three times weekly with removal of 90 [l and addition of 100 μl of fresh basal media.
(§1) For cisplatin induced injury, day 49 organoids were treated with 5 μM cisplatin in basal media after full media change. After 24 hours, full media exchanges were performed. This 24-hour treatment was performed twice a week, on day 52-53, day 56-57, day 59-60, and day 63-64 as well, for a total of five cisplatin treatments. Samples were obtained for RT-qPCR and immunostaining immediately following each 24-hour treatment with cisplatin, and from corresponding controls.
cDNA was prepared using Primescript RT kit (Takara Inc), with 750 ng RNA per reaction. RT-qPCR was performed by using PerfeCa® SYBR® Green FAstMix® ROX (Quanta bio) in the StepOnePlus™ Real-time PCR System (Applied Biosystems). Hmbs was used as a control housekeeping gene for mouse samples, and B-Actin was used for organoids, relative expression was calculated (2^-deltaCT method) and compared to the mean of control group if necessary. Primers used for RT-qPCR are listed in Table 2 (mouse primers) and Table 3 (human primers).

[2] = tested on: human kidney organoids; experiment: P21, gammaH2AX and LTL immunostaining in cisplatin-injured human kidney organoids; format: cell-based; conditions: for gammaH2AX induction: cisplatin; for gammaH2AX induction / P21 expression: concurrent SK-124 (FIG. 9); for LTL-positive proximal tubule cells / P21 / gammaH2AX: dose response, five cisplatin cycles (FIG. 11); for P21 expression: indicated number of cisplatin cycles
Method: FIG. 9. SK-124 treatment protects from cisplatin-induced P21 induction in human kidney organoids. Organoids were treated with the indicated number of cisplatin cycles in the presence of DMSO vehicle (top) or SK-124 (bottom). Organoids were then processed for P21 immunofluorescent microscopy.
FIG. 11. SK-124 protects human kidney organoids from cisplatin injury in a dose-dependent manner. Organoids were treated with five cisplatin cycles in the presence of the indicated doses of SK-124. Subsequently, organoids were immunostained to reveal cellular composition and injury markers P21 (top panels) and gammaH2AX (bottom panels). […] Proximal tubule cells are labeled with LTL staining and are reduced by cisplatin treatment and restored by SK-124 co-treatment.
as §1
Following the treatment, the organoids were collected and immediately fixed in 4% PFA in PBS for 1 hour at room temperature, submerged in 30% sucrose overnight at 4° C., then embedded in O.C.T. Compound (4585. Fisher HealthCare). Subsequently, […] frozen sections were prepared via cryo-sectioning by a cryostat. After 1 hr blocking at room temperature, the sections were treated overnight at 4° C. with primary antibodies in antibody dilution buffer (ADB) with biotinylated LTL (1:200, B-1325, Vector), rat anti-CDH1 (1:500, ab11512, Abcam), goat anti-PODXL (1:500, AF1658, R&D Systems), as well as the antibody of interest, either mouse anti-p21 (1:200, NBP2-43697, Novus Biologicals), or rabbit anti-γH2AX (1:100, 2577, Cell Signaling) antibodies. For the optimum labeling of LTL by biotin/streptavidin interaction, the Streptavidin/Biotin Blocking Kit (SP-2002, Vector Laboratories) was applied according to the manufacturer's instructions. After washing, the samples were stained for 1 hour at RT with the nuclear dye-SYTOX Blue (1:500. S 11348, Invitrogen) and the corresponding secondary antibodies in ADB such as streptavidin-AF750 (1:500, S21384, Invitrogen), donkey anti-rat IgG-AF594 (1:500, A21209, Invitrogen), donkey anti-goat IgG-AF555 (1:500, A21432, Invitrogen), and donkey anti-rabbit IgG-AF488 (1:500, A21206, Invitrogen) for γH2AX or donkey anti-mouse IgG-AF488 (1:500, A21202, Invitrogen) for p21 antibodies as well as mouse anti-Meisl/⅔ (1:200, sc-101850, SantaCruz) conjugated antibody, and slides were mounted with Vectashield antifade mounting medium (H1000, Vector Laboratories).
Finally, the images were captured by the STELLARIS 8 confocal microscope (Leica Microsystems) using 25× water immersion objective lens. The mean diameters of the organoids were measured on the Leica Application Suite X (LAS X) software platform.

[3] = 5 cisplatin treatments (FIG. 8)
[4] = 5 cisplatin treatments (FIG. 8), Co18a1 [sic]
[5] = dose response, five cisplatin cycles (FIG. 12)
[6] = dose response, five cisplatin cycles (FIG. 12A)
[7] = time course, indicated number of cisplatin cycles, SK-124 10 μM (FIG. 10A)
[8] = time course, indicated number of cisplatin cycles, SK-124 10 μM (FIG. 10B)

| Structure (SMILES) | Fibronectin-1 expression [1, 3] | Lrp2 expression [1, 3] | Pai-1 expression [1, 3] | Col8a1 expression [1, 4] | Col8al expression [1, 5] | Fibronectin-1 expression [1, 5] | Pai-1 expression [1, 5] | Lrp2 expression [1, 6] | Pth1r expression [1, 6] | proximal tubule marker genes [1, 6] | fibrosis/injury marker genes ([1]; dose response) | Lrp2 expression [1, 7] | Slc17a2 expression [1, 7] | Col8a1 expression [1, 8] | Fibronectin-1 (FN-1) expression [1, 8] | Pai-1 expression [1, 8] | gammaH2AX induction [2] | LTL-positive proximal tubule cells [2] | P21 [2] | gammaH2AX [2] | further results |
| --- | --- | --- | --- | --- | --- | --- | --- | --- | --- | --- | --- | --- | --- | --- | --- | --- | --- | --- | --- | --- | --- |
| CCc1nnc(-c2c(OC)cc(-c3cnc4cc(-c5cnn(C)c5)ccn34)cc2OC)o1 [SK-124, 2-[2,6-Dimethoxy-4-[7-(1-methylpyrazol-4-yl)imidazo[1,2-a]pyridin-3-yl]phenyl]-5-ethyl-1,3,4-oxadiazole] | reduced; also recorded: blocked | rescued; also recorded: preserved expression | reduced; also recorded: blocked | reduced; also recorded: blocked | suppressed | suppressed | suppressed | dose-dependent restoration | dose-dependent restoration | increased | reduced | restored; also recorded: improved expression | restored; also recorded: improved expression | suppressed expression | suppressed expression | suppressed expression | markedly reduced | restored; also recorded: blocked by SK-124 treatment in a dose-dependent manner | reduced by SK-124 co-treatment in a dose-dependent manner; also recorded: blocked by SK-124 treatment in a dose-dependent manner | reduced by SK-124 co-treatment in a dose-dependent manner | doses at which therapeutic effects are noted in the injury model ([1]; dose response, cisplatin-injured organoids): below 1 μM; P21 expression [2]: markedly reduced |
| N.N.[Cl][Pt][Cl] [cisplatin, reference compound] | induced | reduced | induced | induced | induction | induction | induction | suppression | suppression | reduced | induced | progressively reduced | progressively reduced | induced | induced | induced | robust P21 (top) and gammaH2AX (bottom) induction | reduced; also recorded: loss of LTL-positive proximal tubule cells | robust cisplatin-induced P21 induction | induced | P21 expression [2]: induces P21 expression; also recorded: robust P21 (top) and gammaH2AX (bottom) induction |
